Measured values as given in patent US11103488B2, “Methods of treating autoimmune, respiratory and inflammatory disorders by inhalation of roflumilast N-oxide” (Incozen Therapeutics Pvt. Ltd., priority 2013, dated 2021).
Read-outs that look alike come from different tables or passages of the source.

Legend:
[1] = Particle size distribution after micronization (Alpine Spiral Jet Mill); type: physicochemical; conditions: micronized
Excerpt: Laser diffraction measurement of particle size can use a dry method (wherein a suspension of the compound/salt in an airflow crosses the laser beam) or a wet method (wherein a suspension of the compound/salt in a liquid dispersing medium, such as isooctane (e.g. if compound is soluble in isooctane) or 0.1% Tween 80 in water, crosses the laser beam). With laser diffraction, particle size may be measured, for example, with a Malvern Mastersizer or Sympatec apparatus. For example, particle size measurement and/or analysis by laser diffraction can use any or all of (preferably all of) the following: a Malvern Mastersizer longbed version, a dispersing medium of 0.1% Tween 80 in water, a stir rate of ca. 1500 rpm, ca. 3 mins sonification prior to final dispersion and analysis, a 300 RF (Reverse Fourier) lens, and/or the Fraunhofer calculation with Malvern software. Unless specified otherwise, all d50 and d90 measurements are measured by laser diffraction using a wet method.
Provided below is an exemplary method used for micronization of roflumilast N-Oxide using an Alpine Spiral Jet Mill (HOSOKAWA). The process involved the following steps • 15 gm of Roflumilast N-oxide was weighed. • Main knob for compressed air supply was opened. • Adjusted venture pressure at 6.0 bar and ring pressure at 0.5 bar. • Roflumilast N-oxide was added at a feed rate of ˜200 mg/min manually through the hopper. • After completion of micronization, main air supply knob was turned off and micronized roflumilast N-oxide was collected

[2] = system: neutrophil infiltration (LPS-induced neutrophilia in BALF); test: Lipopolysaccharide (LPS) induced pulmonary neutrophilia; type: in vivo, female Sprague-Dawley rat; conditions: for ED50: Rattus norvegicus, Neutrophil, inhaled or nasal; for Percent inhibition in neutrophil infiltration: intratracheal dry powder, 30 minutes before LPS
Experimental: Roflumilast was prepared as a suspension in a suitable vehicle for oral administration. For intratracheal administration, roflumilast or roflumilast N-oxide was prepared as a dry powder mixture and administered by using a dry powder Insufflator (Penn-Century, USA) Animals were anaesthetized with ketamine and LPS solution was administered intratracheally one hour after roflumilast (at a dose of 0.3, 1, 3, and 10 mg/kg orally), or 30 minutes after roflumilast (at a dose of 10, 30 and 100 μg/kg i.t) or roflumilast N-oxide administration (at a dose of 10, 30 and 100 μg/kg, i.t). 6 hours after LPS instillation, animals were exsanguinated under anaesthesia, and then trachea were cannulated and the lungs were lavaged with 5-ml aliquots of heparinised PBS (1 unit/ml) four times through tracheal cannula (total volume 20 ml). BAL (bronchoalveolar lavage) fluid was stored at 2-8° C. until assayed for total cell and differential leukocyte count. Bronchioalveolar fluid was centrifuged (500×g for 10 minutes) and the resulting cell pellet was resuspended in 0.5 ml of heparinized saline. The total number of white blood cells were determined in BAL fluid using a blood cell counter and were adjusted to 1×10^6 cell/ml. Differential cell count was calculated manually. One hundred microliters of the cell suspension was centrifuged using cytospin 3 to prepare a cell smear. The cell smear was stained with a blood staining solution for differentiation and slides were microscopically observed to identify eosinophil according to their morphological characteristics. The number of each cell type among 300 white blood cells in the cell smear was determined and expressed as a percentage. The total number of neutrophils in each BAL fluid was calculated.
Roflumilast and roflumilast N-oxide were administered intratracheally (i.t) at doses of 100, 30, and 10 μg/kg as 1:200; 1:500; and 1:1000 drug:lactose blends, respectively.

[3] = Lung microsome metabolic stability, human; type: in vitro ADME; conditions: 1 μM test item, 60 minutes, NADPH
Experimental: Metabolic stability studies were conducted using rat, dog and human lung microsomes. The protocol for the studies with rat, dog, and human lung microsomes (from Xenotech, USA) is provided below.
0.4 mg protein was preincubated with 2 mM NADPH (cofactor) in phosphate buffer (pH˜7.4) for 15 minutes at […] and then added with 1 μM test item and incubated further for 60 minutes in triplicate. The reaction mixture was terminated with methanol containing an internal standard and centrifuged further to analyze the test item remaining in the supernatant by LC-MS/MS. The percent parent compound remaining was calculated in comparison with similar samples terminated at 0 minutes.

neutrophil infiltration = test: Acute cigarette smoke induced cell infiltration, neutrophils; type: in vivo, female Balb/c mice; conditions: for Percent inhibition in neutrophil infiltration: intranasal, day 1 to day 4
Experimental: Animals were acclimatized for seven days prior to the start of the experiment. The animals were randomly distributed to various groups based on their body weight. For oral administration of roflumilast and for intranasal administration of roflumilast N-oxide, roflumilast or roflumilast N-oxide were prepared as a suspension in a suitable vehicle. On day 1, mice were administered roflumilast N-oxide or roflumilast and after 1 hour, the animals were placed in a whole body exposure box. On day 1 and day 2, the mice were exposed to the mainstream smoke of 6 cigarettes, and 8 cigarettes on day 3 and day 4. Exposure to the smoke of each cigarette lasted for 10 minutes (cigarettes were completely burned in the first two minutes and followed by an air flow with animal ventilator, then 20 minutes exposure to fresh room air). After every second cigarette an additional break of 20 minutes with exposure to fresh room air was conducted. Control animals were exposed to room air chamber. From day 1 to day 4, the animals were administered roflumilast N-oxide or roflumilast. On day 5, 24 hours after the last cigarette smoke (CS) exposure, the animals were exsanguinated under anaesthesia, the trachea were cannulated and the lungs were lavaged with 0.5-ml aliquots of heparinised PBS (1 unit/ml) four times through tracheal cannula (total volume 2 ml). Bronchioalveolar (BAL) collected was stored at 2-8° C. until assayed for total cell and differential leukocyte count. BAL fluid was centrifuged (500×g for 10 minutes) and the resulting cell pellet was resuspended in 0.5 ml of heparinised saline. The total number of white blood cells was determined in BAL fluid and adjusted to 1×10^6 cell/ml. Differential cell count was calculated manually by diff-quick staining. Forty microliters of the cell suspension was centrifuged using cytospin 3 to prepare a cell smear. The cell smear was stained with a blood staining solution for differentiation and microscopically observed to identify cell type according to their morphological characteristics. The number of each cell type among 300 white blood cells in the cell smear were determined and expressed as a percentage, and the number of neutrophils and macrophages in each BAL fluid were calculated.
Roflumilast and roflumilast N-oxide as a suspension in polysorbate 80 (1% v/v) and methyl cellulose (MC) (0.5% w/v) were used for oral and intranasal administration respectively.

[4] = 7-day repeat dose safety study; type: in vivo, Wistar Rats
Experimental: In order to determine the safety of roflumilast N-oxide by inhalation compared to roflumilast by oral administration, a 7- and 14-day repeat dose safety study was conducted according to the protocol given in Table 5 below.

## O=C(Nc1c(Cl)c[n+]([O-])cc1Cl)c1ccc(OC(F)F)c(OCC2CC2)c1 [Roflumilast N-oxide]
[1]
  Particle Size Distribution (PSD), D10: 0.777 μm
  Particle Size Distribution (PSD), D50: 1.564 μm
  Particle Size Distribution (PSD), D90: 3.021 μm
[2]; Intratracheal (Table 5), read-out: ED50 in Lipopolysaccharide induced pulmonary neutrophilia in female Sprague-Dawley rat model
  ED50: 0.027 mg/kg
[2]; intratracheal administration, read-out: 50% inhibition (ED50) dose, neutrophil infiltration
  ED50: 0.027 mg/kg
[2]; 10 μg/kg
  Percent inhibition in neutrophil infiltration: 37.52%
[2]; 30 μg/kg
  Percent inhibition in neutrophil infiltration: 49.66%
[2]; 100 μg/kg
  Percent inhibition in neutrophil infiltration: 69.48%
[3]; human non smoker lung microsomes
  Percent Parent Compound Remaining, Human Non Smoker: 91.5%
[3]; human smoker lung microsomes
  Percent Parent Compound Remaining, Human Smoker: 99.3%
Neutrophil infiltration; Mus musculus, Neutrophil, inhaled or nasal, intranasal administration, read-out: 50% inhibition (ED50) dose, neutrophil infiltration
  ED50: 0.038 mg/kg
Neutrophil infiltration; 0.003 mg/kg
  Percent inhibition in neutrophil infiltration: 26.60%
Neutrophil infiltration; 0.03 mg/kg
  Percent inhibition in neutrophil infiltration: 59.28%
Neutrophil infiltration; 0.3 mg/kg
  Percent inhibition in neutrophil infiltration: 66.49%
Neutrophil infiltration; 3 mg/kg
  Percent inhibition in neutrophil infiltration: 72.08%
[4]; Intratracheal, 1000 ug/kg/day, 7 days
  MORTALITY: No Mortality
[4]; intratracheal 1000 μg/kg versus ED50 of 27 μg/kg
  Therapeutic window (safe dose relative to ED50): more than 37 fold
[4]; intratracheal administration, 1000 μg/kg
  Overall safety in repeat dose study: found to be safe
